Measured values published in patent US4001429A, “1-Cyclopropyl-1-phenyl-ω-amino-1-alkanols and 1-lower-alkylacyl derivatives as analgetics” (A. H. Robins Company, Incorporated, priority 1975, dated 1977).
Structures can show the parent of a compound that is named as a salt.

Tests used:
[1] = test system: depressant effects which are induced in mice by tetrabenazine; assay: blocking the depressant effects induced in mice by intravenous tetrabenazine (modification of Englehardt et al.); type: in vivo; conditions: Mus musculus, IP
Experimental: The activity of the compounds was determined by their administration intraperitoneally to mice and their effectiveness in blocking the depressant effects which are induced in mice by the intravenous administration of 2-oxo-3-insobutyl-9,10-dimethoxy-1,2,3,4,6,7-hexahydro-11bh-benzo[a]quinolizine (tetrabenazine). The procedure used was a modification of Englehardt, E. L. et al, J. Med. Chem. 11 (2), 325(1968). The ED50 values of the compounds are given in Table I; the compounds of Examples 3, 5, 7 and 8 are the preferred compounds.

mice = assay: analgesic activity in mice, modification of Nilsen's method; type: in vivo; conditions: Mus musculus, ip; administered intraperitoneally to mice; read-out: ED50 analgetic dose
Experimental: The analgesic activity of the 1-cyclopropyl-1-alkanoyloxy-1-phenyl-ω-amino alkane compounds of this invention were determined by a modification of Nilsen's method [Funderburk, W. H., et al, Arch. Int.

SMILES: CCC(=O)OC(CCN(C)C)(c1ccccc1)C1CC1 (centres unmarked) [Example 10, 1-Cyclopropyl-3-dimethylamino-1phenyl-1-propionyloxypropane Hydrochloride]
- ED50 [1]: 7.7 mg/kg
- ED50 (mice): 14.2 mg/kg
